Laboratory results taken from patent US12565494B2, “Inhibitors of human respiratory syncytial virus and metapneumovirus” (priority 2022, dated 2026).
Where two headings read alike, the source gives them in different places.

How the values were obtained:
[1] = test system: RSV-A2-GFP virus; experiment: microbe, parasite or virus in culture; type: cell-based, Human Respiratory Syncytial Virus; conditions: Calu-1 cells, RSV-A2-GFP MOI=1.2, 96 hrs, GFP-expressing cells counted
In short: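 Assay-ready frozen Calu-1 cells (20,000 cells/mL) were infected with RSV-A2-GFP at MOI 1.2 in DMEM with 2% FBS and exposed to a 10-point 3-fold compound dilution for 96 h at 37 °C. GFP-positive cells were counted by imaging, with same-well CellTiter-Glo for cytotoxicity. IC50 and CC50 came from 4-parameter logistic fits.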

[2] = test system: hMPV-GFP virus; experiment: microbe, parasite or virus in culture; type: cell-based, Human Metapneumovirus; conditions: VERO cells, hMPV-GFP MOI=1.25, 48 hrs, GFP-expressing cells counted
In short: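 VERO cells infected with GFP-expressing hMPV at MOI 1.25 and exposed to compound in 10-point 3-fold dilutions (typical final 40,300–2 nM) for 48 h at 37 °C. GFP-positive cells counted by imaging; same-well CellTiter-Glo for cytotoxicity. IC50 and CC50 from 4-parameter logistic fits.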

[3] = human respiratory syncytial virus, Calu-1, 96 h, read-out: RSV EC50, Table I Summary of Activities for RSV
[4] = Vero, 48 h, read-out: RSV EC50, Table II Summary of Activities for hMPV
[5] = Table I Summary of Activities for RSV, read-out: RSV EC50
[6] = Table II Summary of Activities for hMPV, read-out: RSV EC50

Compound	EC50 [1, 3] [nM]	EC50 [2, 4] [nM]	EC50 [1, 5] [nM]	EC50 [2, 6] [nM]
CC(C)(N)c1cc(O[C@H]2[C@@H]3CN(C(=O)c4sc(-c5cscn5)nc4C(F)F)C[C@@H]32)nc(-c2ccc(F)cc2)c1 [Example 14]	< 10	> 100		
CC(C)(N)c1cc(O[C@H]2[C@@H]3CN(C(=O)c4sc(-c5ncco5)nc4C(F)F)C[C@@H]32)nc(-c2ccc(F)cc2)c1 [Example 15, ((1R,5S,6s)-6-((4-(2-aminopropan-2-yl)-6-(4-fluorophenyl)pyridin-2-yl)oxy)-3-azabicyclo[3.1.0]hexan-3-yl)(4-(difluoromethyl)-2-(oxazol-2-yl)thiazol-5-yl)methanone]			< 10	> 100
Cn1nc(-c2ncco2)cc1C(=O)N1C[C@@H]2[C@H](C1)[C@H]2Oc1cc(C(C)(C)N)cc(-c2ccc(F)cc2)n1 [Example 17, ((1R,5S,6s)-6-((4-(2-aminopropan-2-yl)-6-(4-fluorophenyl)pyridin-2-yl)oxy)-3-azabicyclo[3.1.0]hexan-3-yl)(1-methyl-3-(oxazol-2-yl)-1H-pyrazol-5-yl)methanone]	< 10	10 to 100		
Cn1nc(-c2cscn2)cc1C(=O)N1C[C@@H]2[C@H](C1)[C@H]2Oc1cc(C(C)(C)N)cc(-c2ccc(F)cc2)n1 [Example 18, ((1R,5S,6s)-6-((4-(2-aminopropan-2-yl)-6-(4-fluorophenyl)pyridin-2-yl)oxy)-3-azabicyclo[3.1.0]hexan-3-yl)(1-methyl-3-(thiazol-4-yl)-1H-pyrazol-5-yl)methanone]	< 10	10 to 100		
CCn1nc(-c2cscn2)cc1C(=O)N1C[C@@H]2[C@H](C1)[C@H]2Oc1cc(C(C)(C)N)cc(-c2ccc(F)cc2)n1 [Example 19, ((1R,5S,6s)-6-((4-(2-aminopropan-2-yl)-6-(4-fluorophenyl)pyridin-2-yl)oxy)-3-azabicyclo[3.1.0]hexan-3-yl)(1-ethyl-3-(thiazol-4-yl)-1H-pyrazol-5-yl)methanone]	< 10	10 to 100		
Cn1nc(-c2ncsc2F)cc1C(=O)N1C[C@@H]2[C@H](C1)[C@H]2Oc1cc(C(C)(C)N)cc(-c2ccc(F)cc2)n1 [Example 20, ((1R,5S,6s)-6-((4-(2-aminopropan-2-yl)-6-(4-fluorophenyl)pyridin-2-yl)oxy)-3-azabicyclo[3.1.0]hexan-3-yl)(3-(5-fluorothiazol-4-yl)-1-methyl-1H-pyrazol-5-yl)methanone]	< 10	10 to 100		
Cn1nc(-c2ccon2)cc1C(=O)N1C[C@@H]2[C@H](C1)[C@H]2Oc1cc(C(C)(C)N)cc(-c2ccc(F)cc2)n1 [Example 21, ((1R,5S,6s)-6-((4-(2-aminopropan-2-yl)-6-(4-fluorophenyl)pyridin-2-yl)oxy)-3-azabicyclo[3.1.0]hexan-3-yl)(3-(isoxazol-3-yl)-1-methyl-1H-pyrazol-5-yl)methanone]	< 10	> 100		
Cc1cnc(-c2cc(C(=O)N3C[C@@H]4[C@H](C3)[C@H]4Oc3cc(C(C)(C)N)cc(-c4ccc(F)cc4)n3)n(C)n2)o1 [Example 22, ((1R,5S,6s)-6-((4-(2-aminopropan-2-yl)-6-(4-fluorophenyl)pyridin-2-yl)oxy)-3-azabicyclo[3.1.0]hexan-3-yl)(1-methyl-3-(5-methyloxazol-2-yl)-1H-pyrazol-5-yl)methanone]			< 10	10 to 100
Cn1nc(-c2nccs2)cc1C(=O)N1C[C@@H]2[C@H](C1)[C@H]2Oc1cc(C(C)(C)N)cc(-c2ccc(F)cc2)n1 [Example 23, ((1R,5S,6s)-6-((4-(2-aminopropan-2-yl)-6-(4-fluorophenyl)pyridin-2-yl)oxy)-3-azabicyclo[3.1.0]hexan-3-yl)(1-methyl-3-(thiazol-2-yl)-1H-pyrazol-5-yl)methanone]			< 10	> 100
Cc1nc(-c2cc(C(=O)N3C[C@@H]4[C@H](C3)[C@H]4Oc3cc(C(C)(C)N)cc(-c4ccc(F)cc4)n3)n(C)n2)cs1 [Example 24, ((1R,5S,6s)-6-((4-(2-aminopropan-2-yl)-6-(4-fluorophenyl)pyridin-2-yl)oxy)-3-azabicyclo[3.1.0]hexan-3-yl)(1-methyl-3-(2-methylthiazol-4-yl)-1H-pyrazol-5-yl)methanone]			< 10	> 100
Cn1nc(-c2cscn2)c(F)c1C(=O)N1C[C@@H]2[C@H](C1)[C@H]2Oc1cc(C(C)(C)N)cc(-c2ccc(F)cc2)n1 [Example 25, ((1R,5S,6s)-6-((4-(2-aminopropan-2-yl)-6-(4-fluorophenyl)pyridin-2-yl)oxy)-3-azabicyclo[3.1.0]hexan-3-yl)(4-fluoro-1-methyl-3-(thiazol-4-yl)-1H-pyrazol-5-yl)methanone]	< 10	10 to 100		
Cn1nc(-c2ncco2)c(F)c1C(=O)N1C[C@@H]2[C@H](C1)[C@H]2Oc1cc(C(C)(C)N)cc(-c2ccc(F)cc2)n1 [Example 26, ((1R,5S,6s)-6-((4-(2-aminopropan-2-yl)-6-(4-fluorophenyl)pyridin-2-yl)oxy)-3-azabicyclo[3.1.0]hexan-3-yl)(4-fluoro-1-methyl-3-(oxazol-2-yl)-1H-pyrazol-5-yl)methanone]			< 10	> 100
CC(C)(N)c1cc(O[C@H]2[C@@H]3CN(C(=O)c4nc(-c5cscn5)ns4)C[C@@H]32)nc(-c2ccc(F)cc2)c1 [Example 27, ((1R,5S,6s)-6-((4-(2-aminopropan-2-yl)-6-(4-fluorophenyl)pyridin-2-yl)oxy)-3-azabicyclo[3.1.0]hexan-3-yl)(3-(thiazol-4-yl)-1,2,4-thiadiazol-5-yl)methanone]			10 to 100	> 100
Cc1nn(-c2cscn2)cc1C(=O)N1C[C@@H]2[C@H](C1)[C@H]2Oc1cc(C(C)(C)N)cc(-c2ccc(F)cc2)n1 [Example 28, ((1R,5S,6s)-6-((4-(2-aminopropan-2-yl)-6-(4-fluorophenyl)pyridin-2-yl)oxy)-3-azabicyclo[3.1.0]hexan-3-yl)(3-methyl-1-(thiazol-4-yl)-1H-pyrazol-4-yl)methanone]			< 10	> 100
CC(C)(N)c1cc(O[C@H]2[C@@H]3CN(C(=O)c4cc(-c5cscn5)ns4)C[C@@H]32)nc(-c2ccc(F)cc2)c1 [Example 29, ((1R,5S,6s)-6-((4-(2-aminopropan-2-yl)-6-(4-fluorophenyl)pyridin-2-yl)oxy)-3-azabicyclo[3.1.0]hexan-3-yl)(3-(thiazol-4-yl)isothiazol-5-yl)methanone]			< 10	> 100
Cn1nc(-c2cscn2)nc1C(=O)N1C[C@@H]2[C@H](C1)[C@H]2Oc1cc(C(C)(C)N)cc(-c2ccc(F)cc2)n1 [Example 30, ((1R,5S,6s)-6-((4-(2-aminopropan-2-yl)-6-(4-fluorophenyl)pyridin-2-yl)oxy)-3-azabicyclo[3.1.0]hexan-3-yl)(1-methyl-3-(thiazol-4-yl)-1H-1,2,4-triazol-5-yl)methanone]			< 10	> 100
Cc1nc(-c2ncco2)sc1C(=O)N1C[C@@H]2[C@H](C1)[C@H]2Oc1cc(C(C)(C)N)cc(-c2ccc(F)cc2F)n1 [Example 31, ((1R,5S,6s)-6-((4-(2-aminopropan-2-yl)-6-(2,4-difluorophenyl)pyridin-2-yl)oxy)-3-azabicyclo[3.1.0]hexan-3-yl)(4-methyl-2-(oxazol-2-yl)thiazol-5-yl)]	< 10	10 to 100		
Cc1nc(-c2ccon2)sc1C(=O)N1C[C@@H]2[C@H](C1)[C@H]2Oc1cc(C(C)(C)N)cc(-c2ccc(F)cc2F)n1 [Example 32, ((1R,5S,6s)-6-((4-(2-aminopropan-2-yl)-6-(2,4-difluorophenyl)pyridin-2-yl)oxy)-3-azabicyclo[3.1.0]hexan-3-yl)(2-(isoxazol-3-yl)-4-methylthiazol-5-yl)methanone]			< 10	> 100
Cc1nc(-c2cscn2)sc1C(=O)N1C[C@@H]2[C@H](C1)[C@H]2Oc1cc(C(C)(C)N)cc(-c2ccc(F)cc2F)n1 [Example 33, ((1R,5S,6s)-6-((4-(2-aminopropan-2-yl)-6-(2,4-difluorophenyl)pyridin-2-yl)oxy)-3-azabicyclo[3.1.0]hexan-3-yl)(4-methyl-[2,4′-bithiazol]-5-yl)methanone]			< 10	> 100
CC(C)(N)c1cc(O[C@H]2[C@@H]3CN(C(=O)c4sc(-c5cscn5)nc4C4CC4)C[C@@H]32)nc(-c2ccc(F)cc2F)c1 [Example 34, ((1R,5S,6s)-6-((4-(2-aminopropan-2-yl)-6-(2,4-difluorophenyl)pyridin-2-yl)oxy)-3-azabicyclo[3.1.0]hexan-3-yl)(4-cyclopropyl-[2,4′-bithiazol]-5-yl)methanone]			< 10	10 to 100
Cn1nc(-c2ncco2)cc1C(=O)N1C[C@@H]2[C@H](C1)[C@H]2Oc1cc(C(C)(C)N)cc(-c2ccc3c(c2)CC3(F)F)n1 [Example 35, ((1R,5S,6s)-6-((4-(2-aminopropan-2-yl)-6-(7,7-difluorobicyclo[4.2.0]octa-1(6),2,4-trien-3-yl)pyridin-2-yl)oxy)-3-azabicyclo[3.1.0]hexan-3-yl)(1-methyl-3-(oxazol-2-yl)-1H-pyrazol-5-yl)methanone]			< 10	> 100
